Results published in patent US10946029B2, “Dry powder formulation comprising a corticosteroid and a beta-adrenergic for administration by inhalation” (CHIESI FARMACEUTICI S.p.A., priority 2012, dated 2021).

Columns and labels:
[1] = Specific Surface Area by BET nitrogen adsorption (Coulter SA3100); type: physicochemical; conditions: micronised beclometasone dipropionate; mean of three determinations
Protocol: Advantageously, the micronized particles of BDP have also a specific surface area comprised between 5.5 and 7.0 m^2/g, preferably between 5.9 and 6.8 m^2/g. The Specific Surface Area is determined by Brunauer-Emmett-Teller (BET) nitrogen adsorption method according to a procedure known in the art.
(§1) The particle size was determined by laser diffraction using a Malvern apparatus. The parameter taken into consideration was the VD in micron of 10%, 50% and 90% of the particles expressed as d(v,0.1), d(v, 0.5) and d(v, 0.9), respectively, which correspond to the mass diameter assuming a size independent density for the particles. The span [d(v,0.9)−d(v,0.1)]/d(v,0.5) is also reported. The Specific Surface Area (SSA) was determined by BET nitrogen adsorption using a Coulter SA3100 apparatus as a mean of three determinations.

[2] = Particle size distribution by laser diffraction (Malvern apparatus); type: physicochemical; conditions: micronised beclometasone dipropionate; for Span: [d(v,0.9)−d(v,0.1)]/d(v,0.5); for d (v, 0.1): volume diameter of 10% of the particles; for d (v, 0.5): volume diameter of 50% of the particles; for d (v, 0.9): volume diameter of 90% of the particles
Protocol: The size of the particles active is determined by measuring the characteristic equivalent sphere diameter, known as volume diameter, by laser diffraction. In the reported examples, the volume diameter has been determined using a Malvern apparatus, However, other equivalent apparatus may be used by the skilled person in the art.
as §1

SSA [1] [m^2/g]	Span [2]	d (v, 0.1) [2] [μm]	d (v, 0.5) [2] [μm]	d (v, 0.9) [2] [μm]	Compound
6.61	1.41	0.86	1.63	3.15	CCC(=O)OCC(=O)[C@@]1(OC(=O)CC)[C@@H](C)C[C@H]2[C@@H]3CCC4=CC(=O)C=C[C@]4(C)[C@@]3(Cl)[C@@H](O)C[C@@]21C [Batch 1, beclometasone dipropionate]
5.90	1.31	0.96	1.81	3.33	CCC(=O)OCC(=O)[C@@]1(OC(=O)CC)[C@@H](C)C[C@H]2[C@@H]3CCC4=CC(=O)C=C[C@]4(C)[C@@]3(Cl)[C@@H](O)C[C@@]21C [Batch 2, beclometasone dipropionate]
6.12	1.19	0.95	1.71	2.97	CCC(=O)OCC(=O)[C@@]1(OC(=O)CC)[C@@H](C)C[C@H]2[C@@H]3CCC4=CC(=O)C=C[C@]4(C)[C@@]3(Cl)[C@@H](O)C[C@@]21C [Batch 3, beclometasone dipropionate]
6.28	1.54	0.91	1.84	3.76	CCC(=O)OCC(=O)[C@@]1(OC(=O)CC)[C@@H](C)C[C@H]2[C@@H]3CCC4=CC(=O)C=C[C@]4(C)[C@@]3(Cl)[C@@H](O)C[C@@]21C [Batch 4, beclometasone dipropionate]
